pIC50: −log10 of the molar value.
Biological target: TRPA1 (Homo sapiens, UniProt O75762)
Assay: Determination of TRPA1 activity in vitro (TRPA1 antagonism in vitro)
Assay type: cell-based
Settings: procedure of Wei et al., Anesthesiology 111 (2009) 147-154

Chain of TRPA1 (O75762 whole entry): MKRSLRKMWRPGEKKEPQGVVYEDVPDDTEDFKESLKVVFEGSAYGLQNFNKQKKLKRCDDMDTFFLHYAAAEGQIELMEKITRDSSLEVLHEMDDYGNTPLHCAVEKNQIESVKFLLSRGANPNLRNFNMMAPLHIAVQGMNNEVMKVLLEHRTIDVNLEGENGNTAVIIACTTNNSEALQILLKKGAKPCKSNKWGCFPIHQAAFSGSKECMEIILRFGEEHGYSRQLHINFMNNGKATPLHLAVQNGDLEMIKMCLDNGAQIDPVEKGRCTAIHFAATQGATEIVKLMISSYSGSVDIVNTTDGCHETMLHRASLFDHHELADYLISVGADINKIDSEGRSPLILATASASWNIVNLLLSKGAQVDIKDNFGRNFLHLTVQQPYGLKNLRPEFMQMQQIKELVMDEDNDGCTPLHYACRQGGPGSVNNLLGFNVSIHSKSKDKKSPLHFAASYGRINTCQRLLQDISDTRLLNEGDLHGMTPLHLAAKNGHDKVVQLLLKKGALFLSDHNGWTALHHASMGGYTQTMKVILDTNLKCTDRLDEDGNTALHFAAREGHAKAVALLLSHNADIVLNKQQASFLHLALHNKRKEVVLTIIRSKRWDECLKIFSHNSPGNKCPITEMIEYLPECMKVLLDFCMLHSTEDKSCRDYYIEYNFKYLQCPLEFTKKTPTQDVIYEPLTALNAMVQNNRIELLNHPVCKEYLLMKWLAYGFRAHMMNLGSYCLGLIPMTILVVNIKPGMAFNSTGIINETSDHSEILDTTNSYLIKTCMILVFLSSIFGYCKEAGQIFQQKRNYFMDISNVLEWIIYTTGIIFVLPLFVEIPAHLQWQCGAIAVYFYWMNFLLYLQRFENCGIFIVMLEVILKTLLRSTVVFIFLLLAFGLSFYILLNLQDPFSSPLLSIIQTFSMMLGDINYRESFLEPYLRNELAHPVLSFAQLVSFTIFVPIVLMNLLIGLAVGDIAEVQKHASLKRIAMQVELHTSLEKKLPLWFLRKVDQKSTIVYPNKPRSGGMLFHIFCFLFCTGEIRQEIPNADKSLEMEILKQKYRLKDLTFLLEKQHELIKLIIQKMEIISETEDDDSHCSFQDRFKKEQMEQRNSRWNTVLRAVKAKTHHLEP

pIC50	SMILES
4.94	C#CC(C)(C)NC(=O)c1cnccc1Nc1ccc(Cl)cc1 [Example 159, 4-(4-Chlorophenylamino)-N-(2-methylbut-3-yn-2-yl)nicotinamide]
4.97	C#CC(C)(C)NC(=O)c1cccnc1Nc1cc(OC)ccc1F [Example 179, 2-(2-Fluoro-5-methoxyphenylamino)-N-(2-methylbut-3-yn-2-yl)nicotinamide]
5.43	C#CC(C)(C)NC(=O)c1cc(F)cnc1NC(C)(C)C [Example 162, 2-(tert-Butylamino)-5-fluoro-N-(2-methylbut-3-yn-2-yl)nicotinamide]
6.40	C#CC(C)(CC)NC(=O)c1cccnc1Nc1ccccc1 (stereo not shown) [Example 190, N-(3-Methylpent-1-yn-3-yl)-2-(phenylamino)nicotinamide]
6.52	C#CC(C)(CC)NC(=O)c1cc(F)cnc1Nc1ccc(F)cc1 (stereo not shown) [Example 171, 5-Fluoro-2-(4-fluorophenylamino)-N-(3-methylpent-1-yn-3-yl)nicotinamide]
6.30	C#CC(C)(C)NC(=O)c1cccnc1Nc1ccc(C)c(F)c1 [Example 149, 2-(3-Fluoro-4-methylphenylamino)-N-(2-methylbut-3-yn-2-yl)nicotinamide]
5.08	C#CC(CC)(CC)NC(=O)c1cccc2c1NCCC2 [Example 120, N-(3-Ethylpent-1-yn-3-yl)-1,2,3,4-tetrahydroquinoline-8-carboxamide]
5.34	C#CC(C)(C)NC(=O)c1cccnc1NC(C)(C)C(F)(F)F [Example 125, N-(2-Methylbut-3-yn-2-yl)-2-(1,1,1-trifluoro-2-methylpropan-2-ylamino)nicotinamide]
7.00	C#CC(CC)(CC)NC(=O)c1cc(F)cnc1NC1CC(F)(F)C1 [Example 163, 2-(3,3-Difluorocyclobutylamino)-N-(3-ethylpent-1-yn-3-yl)-5-fluoronicotinamide]
6.22	C#CC(C)(CC)NC(=O)c1cccnc1Nc1cc(F)cc(OC)c1 (stereo not shown) [Example 166, 2-(3-Fluoro-5-methoxyphenylamino)-N-(3-methylpent-1-yn-3-yl)nicotinamide]
5.42	C#CC(C)(C)NC(=O)c1cccnc1NC1CCC(F)(F)CC1 [Example 123, 2-(4,4-Difluorocyclohexylamino)-N-(2-methylbut-3-yn-2-yl)nicotinamide]

Further lines, the compound ahead of its results:

SMILES	pIC50
C#CC(C)(C)NC(=O)c1cc(F)ccc1NCCCC [Example 49, 2-(Butylamino)-5-fluoro-N-(2-methylbut-3-yn-2-yl)benzamide]	5.96
C#CC(C)(C)NC(=O)c1cc(F)c(F)cc1NCCCC [Example 42, 2-(Butylamino)-4,5-difluoro-N-(2-methylbut-3-yn-2-yl)benzamide]	6.30
C#CC(CC)(CC)NC(=O)c1cccc2cc[nH]c12 [Example 119, N-(3-Ethylpent-1-yn-3-yl)-1H-indole-7-carboxamide]	4.73
C#CC(C)(C)NC(=O)c1cc(C(F)(F)F)ccc1NC1CCC1 [Example 23, 2-(Cyclobutylamino)-N-(2-methylbut-3-yn-2-yl)-5-(trifluoromethyl)-benzamide]	7.00
C#CC(C)(C)NC(=O)c1ccc(C(F)(F)F)nc1NC1CC1 [Example 117, 2-(Cyclopropylamino)-N-(2-methylbut-3-yn-2-yl)-6-(trifluoromethyl)-nicotinamide]	5.64
C#CC(C)(C)NC(=O)c1ccc(C(F)(F)F)cc1NCCOC [Example 89, 2-(2-Methoxyethylamino)-N-(2-methylbut-3-yn-2-yl)-4-(trifluoro-methyl)benzamide]	5.07
C#CC(C)(C)NC(=O)c1cc(C)ccc1NCC(F)(F)C(F)(F)F [Example 30, 5-Methyl-N-(2-methylbut-3-yn-2-yl)-2-(2,2,3,3,3-pentafluoropropyl-amino)benzamide]	6.52
C#CC(CC)(CC)NC(=O)c1cc(C(F)(F)F)ccc1NCCOC [Example 46, N-(3-Ethylpent-1-yn-3-yl)-2-(2-methoxyethylamino)-5-(trifluoro-methyl)benzamide]	6.30
